Measurements: ChEMBL document CHEMBL3259604, “Synthesis and anti-BVDV activity of novel δ-sultones in vitro: implications for HCV therapies” (Bioorg Med Chem Lett, 2014)

Legend:
[1] = tested on: Bovine viral diarrhea virus 1; test: Antiviral activity against BVDV AV-69 infected in MDBK cells assessed as cytopathic effect after 3 to 4 days by plaque reduction assay; format: functional, organism-based; conditions: Bovine viral diarrhea virus isolates and strains, AV-69, MDBK
[2] = Cytotoxicity against MDBK cells at 20 uM after 48 hrs by MTT assay; format: cell-based, Bos taurus; conditions: cattle
[3] = Cytotoxicity against MDBK cells after 48 hrs by MTT assay; format: cell-based, Bos taurus; conditions: cattle
[4] = tested on: Bovine viral diarrhea virus 1; test: Ratio of ribavirin EC50 to compound EC50 for BVDV AV-69; format: functional

## CC12COS(=O)(=O)CC1=C(c1ccc(C(F)(F)F)cc1)C(=O)O2 (stereo not drawn)
[1]
  EC50: > 1200 nM
[2]
  Activity: Non-toxic

## Cc1ccc(C2=C3CS(=O)(=O)OCC3(C)OC2=O)cc1 (stereo not drawn)
[1]
  EC50: > 1200 nM
[2]
  Activity: Non-toxic

## CC12COS(=O)(=O)CC1=C(c1ccc(Cl)cc1)C(=O)O2 (stereo not drawn)
[1]
  EC50: 500 nM
[2]
  Activity: Non-toxic

## CC12COS(=O)(=O)CC1=C(c1ccccc1)C(=O)O2 (stereo not drawn)
[1]
  EC50: 500 nM
[3]
  CC50 at 48 h: > 20000 nM

## CC12COS(=O)(=O)CC1=C(c1ccccc1Br)C(=O)O2 (stereo not drawn)
[1]
  EC50: 120 nM
[4]
  Ratio EC50: 10
[3]
  CC50 at 48 h: > 20000 nM

## CC12COS(=O)(=O)CC1=C(c1ccc(Br)cc1)C(=O)O2 (stereo not drawn)
[1]
  EC50: 1000 nM
[2]
  Activity: Non-toxic

## COc1ccc(C2=C3CS(=O)(=O)OCC3(C)OC2=O)cc1 (stereo not drawn)
[1]
  EC50: > 1200 nM

## CC12COS(=O)(=O)CC1=C(c1ccc(F)c(F)c1)C(=O)O2 (stereo not drawn)
[1]
  EC50: > 1200 nM
[2]
  Activity: Non-toxic

## CC12COS(=O)(=O)CC1=C(c1ccccc1F)C(=O)O2 (stereo not drawn)
[1]
  EC50: 500 nM
[3]
  CC50 at 48 h: > 20000 nM

## CC12COS(=O)(=O)CC1=C(c1cccc(F)c1)C(=O)O2 (stereo not drawn)
[1]
  EC50: 1000 nM
[3]
  CC50 at 48 h: > 20000 nM

## CC12COS(=O)(=O)CC1=C(c1ccc(F)cc1)C(=O)O2 (stereo not drawn)
[1]
  EC50: > 1200 nM

## NC(=O)c1ncn([C@@H]2O[C@H](CO)[C@@H](O)[C@H]2O)n1 [RIBAVIRIN]
[1]
  EC50: 1300 nM
[3]
  CC50 at 48 h: > 20000 nM
